Results on 89 compounds are retold here after a melting point compilation (Tetko et al.; mined from patent text by program, amines drawn as free bases though some values may be those of a salt).

Bounds are passed on as bounds.

For the compound `O=C(O)c1cc(Cn2cc(C3c4ccccc4C=Cc4ccccc43)c(=S)[nH]c2=O)ccc1O`, the melting point (in general, the temperature, or range, at which the solid turns liquid) was above 240 °C. The same measure for `Cc1nc2sccn2c(=O)c1CCN1CCC(NC(=O)c2cc(Cl)c(N)c3c2OCCC3)CC1`: 212 °C; for `OCCOc1nccc(-c2c(-c3ccc(F)cc3)ncn2C2CCC(O)CC2)n1` (centres undefined): 191 to 193 °C. In the case of `Cc1cnc(Br)c(C#N)c1`, the melting point fell in the range of 109 to 111 °C.

The compound `COC(=O)NNc1cc(C)cc2c1OC(C)C2` (centres undefined) came in with a melting point of 82 to 84 °C. On to `S=C(NCc1cccnc1)NC(=Nc1ccccc1)c1ccccc1`, for which the melting point was in the range of 146 to 147 °C. The value for `CCCCCS(=O)(=O)NC(=O)/C=C/c1ccc(OCCOC2CC2)cc1Oc1ncc(C(F)(F)F)cc1Cl` was 105 to 106 °C. Consider `Cn1cc(-c2cc(-c3ccncc3)ccn2)n(-c2ccc(C(C)(C)C#N)cc2)c1=O`, for which the melting point came out at 226 °C. The compound `Cc1csc(C(=O)C2C(=O)N(C(N)=O)c3cc(F)cnc32)c1` (centres undefined) displayed a melting point above 250 °C.

`CCc1nc2c(C)cc(C)nc2n1Cc1ccc(Nc2ccccc2)cc1` showed a melting point of 151 to 152 °C. The value for `Cc1ccc(F)c(NS(=O)(=O)c2n[nH]c(NC=O)n2)c1F` was 270 to 273 °C; that for `Cc1cc(C=C2SC(=O)NC2=O)ccc1-c1cccc(CN(C)C(=O)OC(C)(C)C)c1` was 156 °C. The same measure for `Nc1ccc(Oc2ccc(O)c(C(=O)O)c2)cc1`: 223 to 224 °C. The same measure for `CC(C)(C)N(Cc1ccccc1)CC(O)c1ccc(OCc2ccccc2)c(C(O)CO)c1` (centres undefined): 148 to 149 °C. `COC1(OC)C=CC=CC1C1c2cccc(O)c2C(=O)c2c(O)cccc21` (centres undefined) showed a melting point of 152 °C. Consider `O=C1OCc2c1nc1ccc3c(c1c2-c1ccc2c(c1)OCO2)OCO3`, for which the melting point fell in the range of 272 to 274 °C.

On to `O=C1COCCOCC(=O)NCCSCCSCCN1`, for which the melting point stood at 145 °C. The same measure for `Cc1c(-c2cccnc2)n(Cc2ccc(C(=O)O)cc2)c2ccccc12`: 273 to 275 °C; for `Cc1cc(-c2nc3cc(Cl)cc(CCc4ccccn4)c3o2)[nH]n1`: 205 to 220 °C; for `NC1=NC(c2ccc(OC(F)(F)F)cc2)(c2cccc(-c3cccnc3F)c2)C2=NOCCN12` (centres undefined): 102 to 117 °C. The value for `ON=C1CCC(c2ccccc2)CC1` (centres undefined) was 110 to 112 °C; that for `c1ccc(-c2ccn3cnnc3n2)cc1` was 192 °C; that for `CC[C@H](C)[C@H](OCc1ccccc1)[C@H]1[C@H]([N+](=O)[O-])[C@H](C2CC2)N[C@@H]1C(=O)O` was 159 to 161 °C. The value for `O=C(NCc1ccccc1)c1cc(O)c(O)c([N+](=O)[O-])c1` was 185 to 189 °C; that for `CCCCCCCCc1ccc(CCC(CC)(COC(C)=O)NC(C)=O)cc1` (centres undefined) was 107 to 109 °C. In turn, `C(=Cc1ccc2c(c1)Sc1ccccc1N2c1ccccc1)c1ccc(-c2ccc(C=Cc3ccc4c(c3)Sc3ccccc3N4c3ccccc3)cc2)cc1` registered a melting point of 278 to 290 °C. The same measure for `CC1(C)Oc2ccc(C#Cc3ccccc3)cc2[C@@H](N)[C@@H]1O` (relative stereo): 162 to 164 °C; for `COCN(c1cccc2cc(-c3ncn(C)n3)n(COC)c12)S(=O)(=O)c1cccs1`: 157 to 158 °C. The same measure for `COc1cccc(CCNC(=S)Nc2nc3ccccc3[nH]2)c1`: 161 to 167 °C. The value for `ClCc1coc(C=C2c3ccccc3-c3ccccc32)n1` was 175 to 176 °C. Turning to `O=C(Nc1nonc1-c1ccc(Cl)cc1)NC1CCCCC1`, the melting point turned out to be 216 °C. The value for `COc1ccc(CC(=O)NC(NC(=NC#N)Nc2ccccc2Cl)C(C)(C)C)cc1OC` (centres undefined) was 135 to 136 °C. Turning to `CCOC(=O)c1cnc2cc3c(cc2c1O)OCO3`, the melting point was above 290 °C. The value for `O=C1c2ccccc2-c2c1c1ccccc1c(=O)n2CCO` was 201 to 204 °C.

`O=C(NS(=O)(=O)c1ccc(Cl)cc1)N1C(=O)C(c2ccccc2)N1C(c1ccccc1)c1ccccc1` (centres undefined) had a melting point of 162 to 163 °C. In the case of `CN1C(=O)N(c2cc(Cl)cc(Cl)c2)C(=O)[C@]12CN(Cc1ccccc1)C[C@H]2c1ccc(Br)cc1` (relative stereo), the melting point amounted to 204 °C. `Clc1ccc2c(c1)N(c1ncnc3cc4c(cc13)OCCO4)CC2` gave a melting point of 209 to 211 °C. The value for `COC1=C(c2ccc(C)cc2C)C(=O)CCC1` was 122 to 123 °C. `O=C(Nc1nc(-c2ccc(OC(F)F)cc2)cs1)C1CC1` showed a melting point of 202 to 203 °C. With `COc1c(C=O)c2cc(Cl)c(Cl)cc2n1C1OC(CO)C(O)C1O` (centres undefined), the melting point was 198 to 199 °C. The same measure for `CCOc1ccc(-c2ccc3c(c2)C=C(C(=O)OC(C)(C)C)CCN3C)cc1`: 140 to 142 °C; for `Cc1nc(N2CCOCC2)sc1C`: 122 to 123 °C; for `NC(=O)CC[C@H](NC(=O)CCc1ccc(OCc2ccccc2)cc1OCc1ccccc1)C(=O)N1CCN(c2ccccc2)CC1`: 118 to 120 °C. Consider `CCC(=O)Nc1c(N)cc(Br)cc1OCc1ccccc1`, for which the melting point is 198 to 201 °C. In turn, `CS(=O)(=O)c1c[nH]c(=O)c(I)c1` yielded a melting point of 273 to 276 °C. The compound `COc1ccc(C(=O)n2cccc2Br)c(OC)c1` returned a melting point of 81 to 82 °C. The same measure for `CCN(CC)CCNc1ccc2c3c(nn2CCO)-c2c(O)ccc(O)c2C(=O)c13`: 231 to 234 °C. On to `CCCO[C@@H]1[C@@H](OC)[C@H](C)O[C@@H](ON=Cc2ccc(/C=C/c3ccc(OC(F)(F)F)cc3)cc2)[C@@H]1OC`, for which the melting point fell in the range of 124 to 132 °C. The same measure for `CCOC(=O)c1ccc(C#CC(=O)Nc2ccccc2)cc1`: 114 to 115 °C; for `CC(C)(O)c1ccc(CN)cc1`: 62 to 64 °C. In the case of `Cc1cc(O)n(-c2ccc(N3CCOCC3)nn2)n1`, the melting point fell in the range of 189 to 192 °C. As to `COc1ccc(Cc2cc3cccc(-c4cccc(C(=O)NCCO)c4)c3s2)cn1`, the melting point lay in the range of 138 to 139 °C. The same measure for `O=C1CC(/C=C/c2ccncc2)=Nc2ccccc2N1Cc1ccccc1`: 208 to 210 °C.

With `CC(C)(O)c1nnn(Cc2cccc(C(F)(F)F)c2)c1I`, the melting point lay within 77 to 80 °C.

Consider `CC(=O)NC(C(=O)O)C(c1ccc(F)cc1)c1ccc(F)cc1` (centres undefined), for which the melting point amounted to 187 °C. The value for `CCOC(=O)CNc1ncccc1NC(=O)c1cccc(F)c1` was 134 to 135 °C. As for `CCCCN(CCCC)c1nc(-c2ccc(OC)cc2)nc2sc(C#N)c(C)c12`, the melting point was in the range of 96 to 98 °C. With `Oc1ccc(C(=C2SCCCS2)c2ccccc2)cc1`, the melting point was 135 to 137 °C. `COc1ccccc1CNc1ccc2c(C(=N)NO)cccc2n1`: the melting point is 161 °C.

Turning to `CC(=O)NC(=Cc1ccccc1)C1=NC(=Cc2ccc(F)cc2)C(=O)O1`, the melting point was 172 °C. The same measure for `O=C(O)C1CNc2ccccc2CN1` (centres undefined): 183 to 185 °C; for `CCn1cc(CC(=O)OC)c(O)n1`: 72 to 73 °C; for `O=C1CCC2(CC3CCC2CC3)C(=O)N1` (centres undefined): 183 to 184 °C. The compound `COc1ccc(-c2cc3oc(=O)c4ccccc4c3nn2)cc1` returned a melting point of 270 °C. The value for `O=C1CCC2=C1C(c1ccc(Br)c(Br)c1)C1=C(CCS1)N2` (centres undefined) was above 260 °C; that for `CCCC(=O)Nc1cc2c(s1)CCN(C(C(=O)C1CC1)c1ccccc1F)C2` (centres undefined) was 154 to 157 °C; that for `Cc1c(Cl)cc2c(c1Cl)OC(C(F)(F)F)C(C(=O)O)=C2` (centres undefined) was 230 to 231 °C. In turn, `O=C1C(=O)c2ccc(-c3cccnc3)cc2C2=C1SCC1(CCN(C(=O)c3cccc(Cl)c3)CC1)O2` yielded a melting point of 240 to 242 °C. The same measure for `CN(C)c1cc(-c2c[nH]c(N)n2)ccn1`: above 270 °C; for `CC(C)c1cccc(C(C)C)c1NC(=O)NCC1(c2ccc(Cl)cc2)CCCC1`: 189 to 192 °C; for `CN(C)c1onc2c1c(=O)n(C)c(=O)n2C`: 188 to 190 °C.

`O=C1c2ccccc2CN1c1ccc2c(c1)OCCO2` returned a melting point of 170 to 176 °C. On to `O=C(O)C(Cc1ccc(OCCN2c3ccccc3Oc3ccccc32)cc1)Oc1ccccc1` (centres undefined), for which the melting point is 119 to 120 °C. `CC(C)(C)OC(=O)N1CC(=O)Nc2ccccc21` displayed a melting point of 143 to 144 °C. Compound `CSc1ncc2cc(Cc3ccccc3F)c(=O)n(C)c2n1` returned a melting point of 156 to 159 °C.

`CC(CCC(O)C(C)(C)O)C1CCC2C3CCC4CC(O)CCC4(C)C3CCC12C` (centres undefined) came in with a melting point of 152 to 154 °C. In the case of `COc1cc(OC)nc(NS(=O)(=O)c2ccccc2N(C)S(C)(=O)=O)n1`, the melting point was 228 to 230 °C.

The compound `O=C1CC(C(=O)NC(Cc2c[nH]cn2)C(=O)OCc2ccccc2)N1` (centres undefined) yielded a melting point of 196 to 199 °C. The compound `Cc1cc(C)c2cc3c(cc2n1)C(NCCc1ccccc1)C(O)C(C)(C)O3` (centres undefined) came in with a melting point of 144 to 147 °C. The compound `Clc1nc2cc(Br)c(Br)c(Br)c2[nH]1` came in with a melting point of 263 to 266 °C. The compound `O=C1c2ccccc2C(=O)N1CCOc1cccc2c1CCC2` showed a melting point of 128 to 132 °C. The value for `CCCCCN(CCC12CC3CC(CC(C3)C1)C2)C(=O)NCCCCc1ccncc1` was 74.1 to 78.1 °C; that for `CCCn1nc(SCCCCCCC(=O)O)c(C(=O)O)c1Cc1cc2c(cc1Cl)OCO2` was 180 °C; that for `CC(C)n1c(=O)n(CC2CNCCO2)c2ccccc21` (centres undefined) was 95 °C. `COC(=O)c1cc2ccc(OCCc3ccccc3)cc2oc1=O` yielded a melting point of 100 to 101 °C. `N#CCc1ccc(C2CCCCC2)cc1` showed a melting point of 48 to 49 °C. The same measure for `NC1=NC(c2ccc(OC(F)F)cc2)(c2cccc(-c3cccnc3F)c2)C2=NCC3(COC3)CN12` (centres undefined): 96 to 107 °C; for `COC(=O)c1ccc(OCCCN2CCC(C(O)(c3ccc(F)cc3)c3ccc(F)cc3)CC2)c(OC)c1`: 131 to 132 °C. In turn, `O=C1NN=CC1=CNCCC(F)=C(F)F` came in with a melting point of 126 to 130 °C.
